Experimental data: patent US12465614B2, “Budesonide 21-phosphate salts and pharmaceutical compositions containing the same” (GENETIC S.P.A., priority 2020, dated 2025)

Tests used:
[1] = system: compound 48/80 (C48/80)-induced skin edema in mice; assay: Cutaneous edema: C48/80-induced plasma extravasation, Evans blue method (Experimental Groups IV); assay type: in vivo; conditions: for C48/80-induced edema: 0.70 μmol/kg i.p. (0.30 mg/kg Bud, 0.36 mg/kg Bud 21-P); for reduction of C48/80-induced plasma extravasation: 2.32 μmol/kg i.p. (1.0 mg/kg Bud, 1.2 mg/kg Bud 21-P), 60 min before i.d. C48/80
Description: Male C57Bl/6 SPF mice (25±2 g, 6-week-old) were purchased from the animal house facilities at the São Paulo School of Medicine (Federal University of São Paulo, Brazil). They were group-housed in a temperature-controlled room at 22° C. with a 12/12-hour light/dark cycle, had free access to food and water and were allowed to acclimate to our local facility for one week before the start of the experimental procedures. The study agrees with the Ethical Principles for Animal Research established by the Brazilian College for Animal Experimentation (COBEA). According to the internal laboratory rules, euthanasia is performed if severe distress related to the test agents developed during the experiment.
In Protocol 4, Bud (at doses of 1.0 and 0.30 mg/kg) and Bud 21-P (at doses of 1.2 and 0.36 mg/kg) were administered on a molar base, these doses were equivalent to […] μmol/kg of each compound, respectively. The vehicle for dissolution of the compounds was sterile saline solution (0.9% NaCl) containing 12.5% DMSO (Sigma Chemical Co., St. Louis, MO). The compound solutions were prepared at concentrations such that the administered dose per kg of body weight results from the intraperitoneal (i.p.) administration of 10 ml/kg of each of the solutions.
Skin edema was assessed in mice according to the method previously described by Costa et al. (2006) and Yshii et al (2009). The mice were anesthetized with urethane (25% w/v, 10 ml/kg, i.p.), had their dorsal skin shaved, and thereafter i.p. treated with the vehicle/test compounds. Fifty-five minutes later, a volume of 100 μL of Evans blue dye solution (0.25% in sterile saline) was intravenously (i.v.) injected via the tail vein. Five minutes later, the BK and C48/80 were intradermally (i.d.) injected into the dorsal skin at a fixed volume of 50 μl using a randomized scheme. The same volume of Tyrode solution 50 μl was injected as a control. Thirty minutes later, a 1 ml blood sample was obtained via cardiac puncture and the mice were killed by urethane overdose followed by cervical dislocation. The blood samples were centrifuged at 6,000 g for 4 min to obtain the plasma. […] The dye was extracted from each piece of skin and plasma (100 μl) samples using formamide, and the absorbance of the resulting solutions was measured at 620 nm. The plasma extravasation due to each agent (expressed in μl/site) was calculated as the ratio between the absorbance of each respective skin piece, corrected by the blank value and plasma sample solutions, properly adjusted by the dilution factors. To homogenate data due to the variability of different group of animals (inter-group variations), edema data are expressed as the fold-change response relative to the mean Tyrode (control) response of each experiment.

[2] = system: IgE; assay: Plasma IgE levels in OVA-sensitized mice, ELISA (Experimental Groups I); assay type: in vivo; conditions: 1 mg/Kg i.p.; vs OVA group; FIG. 10 panel C
Description: Female Balb/c (8-week-old, Charles River, Calco, Italy) were housed in the animal care facility of the Department of Pharmacy of the University of Naples, Italy in a controlled environment (temperature 21±2° C. and humidity 60±10%) and provided with standard rodent chow and water. All animals were allowed to acclimate for four days prior to experiments and were subjected to 12 h light−12 h dark schedule. Experiments were conducted during the light phase. The experimental procedures were approved by the Italian Ministry according to International and National law and policies (EU Directive 2010/63/EU and Italian DL 26/2014 for animal experiments). […] The compounds were dissolved in DMSO (Sigma Chemical Co., St. Louis, MO) at concentrations at which the determined dose per animal results from the intraperitoneal administration of 100 μl of solution (1:10 DMSO) and intra-nasal (i.n.) administration of 10 μl/animal (5 μl/nostril) of the solutions. […] Plasma levels of IgE were measured as index of sensitization. […] Total IgE levels were measured by means of ELISA using matched antibody pairs (BD Biosciences Pharmingen San Jose, CA).

Structure (SMILES) | C48/80-induced edema [1] | reduction of C48/80-induced plasma extravasation [1] | OVA induced increase of IgE plasma levels [2]
CCCC1OC2CC3C4CCC5=CC(=O)C=CC5(C)C4C(O)CC3(C)C2(C(=O)COP(=O)(O)O)O1 (centres unmarked) [B, Budesonide 21-phosphate] | significantly inhibited C48180-induced edema | approximately 50% | significantly reduced OVA induced increase of IgE plasma levels
CCCC1OC2CC3C4CCC5=CC(=O)C=CC5(C)C4C(O)CC3(C)C2(C(=O)CO)O1 (stereo not drawn) [Bud, 11β,21-dihydroxy-16α,17α-(butylidenebis(oxy))pregna-1,4-diene-3.20-dione] | ineffective | approximately 50% | 
